Measured values as given in patent publication US9416115B2, “Fused heterocyclic compounds as ion channel modulators” (Gilead Sciences, Inc., priority 2013, dated 2016).
Where two headings read alike, the source gives them in different places.

How the values were obtained:
[1] = biological target: wild-type human cardiac sodium channel, hNav1.5 (Homo sapiens, UniProt Q14524); test: Peak INa screening assay (tonic block and use-dependent block); type: cell-based
Protocol: The cardiac late sodium current (Late INa) and peak sodium current (Peak INa) assays are performed on an automated electrophysiology platform, QPatch 16X or QPatch HT (Sophion Bioscience, Copenhagen, Denmark) using the whole cell patch clamp technique to measure currents through the cell membrane. The assay uses an HEK293 (human embryonic kidney) cell line heterologously expressing the wild-type human cardiac sodium channel, hNav1.5, purchased from Millipore (Billerica, Mass.). No beta subunits were coexpressed with the Na channel alpha subunit. Cells are maintained with standard tissue culture procedures and stable channel expression is maintained with 400 μg/mL Geneticin in the culture medium. Experiments are carried out at 23-25° C.
For both the Late INa and Peak INa assays, series resistance compensation is set to 100% and series resistance and whole-cell compensation are performed automatically. Currents are digitized at 25 kHz and low-pass filtered at 5 kHz and stored in the Sophion Bioscience Oracle database (Sophion Bioscience, Copenhagen, Denmark). Analysis is performed using QPatch Assay software and data are compiled in Excel 2010 (Microsoft, Seattle, Wash., U.S.A.).
Compound stocks are routinely made by the Gilead Sample Bank in vials to 10 mM in dimethyl sulfoxide (DMSO). In some cases, when compounds are not soluble in DMSO, they are made in 100% ethanol. Stocks are sonicated as necessary. The extracellular solution for screening Late INa is composed of: 140 mM NaCl, 4 mM KCl, 1.8 mM CaCl2, 1 mM MgCl2, 10 mM HEPES and 10 mM Dextrose with pH adjusted to 7.35 using NaOH. The intracellular solution contains: 105 mM CsF, 20 mM CsCl, 10NaF, 2 mM EGTA, 10 mM HEPES and 10 mM Dextrose with pH adjusted to 7.35 with CsOH. Compounds are diluted in extracellular solution using a MicroLab Nimbus (Hamilton Robotics, Reno, Nev.) to between 0.3 and 3 μM in glass vials and transferred to glass well plates before robotic addition to the cells. The 0 mM Na extracellular solution (0Na-ECF) used at the end of each experiment for the Late INa and Peak INa assays to measure baseline current contains: 140 Choline-Cl; 4 mM KCl, 1.8 mM CaCl2; 1 mM MgCl2; 10 mM HEPES and 10 mM Dextrose with pH was adjusted to 7.35 with CsOH.
Compounds were evaluated for their effect Nav1.5 Peak INa. It is contemplated that the compounds of Formula I avoid significant block of peak INa. Since the peak INa in the cells used herein can be very large, introducing artifacts in the recording, the concentration of Na^+ in the bath can be reduced to 40 mM by isosmotic replacement of Na^+ with Choline (see below).
Tonic Block (TB) of Peak INa was measured using a voltage step to −20 mV from a holding potential of −100 mV at a low stimulation frequency of 0.1 Hz. Use-Dependent Block (UDB) of Peak INa was measured during pulse number 50 of a pulse train (−20 mV, 20 ms, 50 pulses, 3 Hz) from a holding potential of −100 mV.
The extracellular solution for screening Peak INa is composed of: 40 mM NaCl, 100 mM Choline-Cl, 4 mM KCl, 1.8 mM CaCl2, 1 mM MgCl2 10 mM HEPES and 10 mM Dextrose with pH adjusted to 7.35 using NaOH. The intracellular solution used for the Peak INa assay is the same as outlined for the Late INa assay (see above).
After establishing the whole cell recording configuration, channels were stimulated to open with low frequency (0.1 Hz) so that the recording can be monitored and the extent to which the recording has stabilized can be assessed.
The test compound is then applied at 1 or 3 μM and was added 2 times at 60 second intervals. After the second compound addition, a 200 second wait period was imposed to allow for equilibration. Voltage protocols for TB and UDB are were performed in the absence and presence of compound and TB and UDB are calculated with respect to the compound free condition. Both TB and UDB were analyzed by incorporating rundown correction for the peak INa.

hNav1.1 (SCN1A) = hNav1.1 (SCN1A) (Homo sapiens, UniProt P35498); test: Use-dependent inhibition of the CNS Nav1.1 sodium channel; type: cell-based; conditions: use-dependent block, 25 Hz, pulse 20, read-out: Nav1.1 UDB 25 Hz 10 uM
Protocol: HEK-293 cells stably expressing wild-type (WT) hNav1.1 (SCN1A, NCBI# AB09354) were obtained from Millipore (Cat. # CYL3009) were used to record INa. Cells are maintained with standard tissue culture procedures and stable channel expression is maintained with 400 ug/mL G418 in the culture medium. Unless otherwise noted, all reagents are purchased from Sigma-Aldrich (St Louis, Mo., U.S.A.).
Assays measuring Use-Dependent Block (UDB) of Nav1.2 are performed on an automated electrophysiology platform, QPatch 16X or QPatch HT (Sophion Bioscience, Copenhagen, Denmark), using the whole cell patch clamp technique to measure currents through the cell membrane. Series resistance compensation is set to 100% and series resistance and whole-cell compensation are performed automatically. Currents stored in the Sophion Bioscience Oracle database (Sophion Bioscience, Copenhagen, Denmark). Analysis is performed using QPatch Assay software and data are compiled in Excel 2010 (Microsoft, Seattle, Wash., U.S.A.).
The internal (pipette) solution consists of (in mM) 105 CsF, 10 NaF, 20 CsCl, 2 EGTA, 10 HEPES, 10 Dextrose with a pH of 7.35 and osmolarity of 300 mOsmol/kg. The external (bath) solution contains in (mM): 145 NaCl, 4 KCl, 1.8 CaCl2, 1 MgCl2, 10 dextrose, 10 HEPES, with a pH of 7.35 and osmolarity of 310 mOsmol/kg. Experiments are carried out at 23-25° C.
Compound stocks are routinely made by the Gilead Sample Bank in vials to 10 mM in dimethyl sulfoxide (DMSO). In some cases, when compounds are not soluble in DMSO, they are made in 100% ethanol. Stocks are sonicated as necessary. […]
Cells are allowed to stabilize for 10 min after establishment of the whole-cell configuration before current is measured. The test compound is applied 2 times at 60 second intervals. After the second compound addition, a 200 second wait period was imposed to allow for equilibration. Leak currents are subtracted by using an online P/4 procedure and all currents are low-pass Bessel filtered at 5 kHz and digitized at […].
Use-dependent block of Nav1.2 peak current is measured during pulse number 20 of a voltage pulse train (0 mV, 20 ms, 20 pulses, 25 Hz) from a holding potential of −120 mV. Currents are normalized to the peak current recorded in response to the first pulse in each frequency train. The voltage protocol for UDB was performed in the absence and presence of compound and percentage inhibition was calculated with respect to the compound free condition. Results are presented as mean percentage inhibition and data analysis is performed using QPatch Assay Software 4.0, and Excel 2002 (Microsoft, Seattle, Wash., U.S.A.).

[2] = tonic block of Peak INa, 0.1 Hz, holding -100 mV, read-out: Peak TB 3 uM
[3] = use-dependent block of Peak INa, 3 Hz, pulse 50, read-out: Peak UDB 3 Hz 3 uM

Sequence of wild-type human cardiac sodium channel, hNav1.5 (Q14524 whole entry): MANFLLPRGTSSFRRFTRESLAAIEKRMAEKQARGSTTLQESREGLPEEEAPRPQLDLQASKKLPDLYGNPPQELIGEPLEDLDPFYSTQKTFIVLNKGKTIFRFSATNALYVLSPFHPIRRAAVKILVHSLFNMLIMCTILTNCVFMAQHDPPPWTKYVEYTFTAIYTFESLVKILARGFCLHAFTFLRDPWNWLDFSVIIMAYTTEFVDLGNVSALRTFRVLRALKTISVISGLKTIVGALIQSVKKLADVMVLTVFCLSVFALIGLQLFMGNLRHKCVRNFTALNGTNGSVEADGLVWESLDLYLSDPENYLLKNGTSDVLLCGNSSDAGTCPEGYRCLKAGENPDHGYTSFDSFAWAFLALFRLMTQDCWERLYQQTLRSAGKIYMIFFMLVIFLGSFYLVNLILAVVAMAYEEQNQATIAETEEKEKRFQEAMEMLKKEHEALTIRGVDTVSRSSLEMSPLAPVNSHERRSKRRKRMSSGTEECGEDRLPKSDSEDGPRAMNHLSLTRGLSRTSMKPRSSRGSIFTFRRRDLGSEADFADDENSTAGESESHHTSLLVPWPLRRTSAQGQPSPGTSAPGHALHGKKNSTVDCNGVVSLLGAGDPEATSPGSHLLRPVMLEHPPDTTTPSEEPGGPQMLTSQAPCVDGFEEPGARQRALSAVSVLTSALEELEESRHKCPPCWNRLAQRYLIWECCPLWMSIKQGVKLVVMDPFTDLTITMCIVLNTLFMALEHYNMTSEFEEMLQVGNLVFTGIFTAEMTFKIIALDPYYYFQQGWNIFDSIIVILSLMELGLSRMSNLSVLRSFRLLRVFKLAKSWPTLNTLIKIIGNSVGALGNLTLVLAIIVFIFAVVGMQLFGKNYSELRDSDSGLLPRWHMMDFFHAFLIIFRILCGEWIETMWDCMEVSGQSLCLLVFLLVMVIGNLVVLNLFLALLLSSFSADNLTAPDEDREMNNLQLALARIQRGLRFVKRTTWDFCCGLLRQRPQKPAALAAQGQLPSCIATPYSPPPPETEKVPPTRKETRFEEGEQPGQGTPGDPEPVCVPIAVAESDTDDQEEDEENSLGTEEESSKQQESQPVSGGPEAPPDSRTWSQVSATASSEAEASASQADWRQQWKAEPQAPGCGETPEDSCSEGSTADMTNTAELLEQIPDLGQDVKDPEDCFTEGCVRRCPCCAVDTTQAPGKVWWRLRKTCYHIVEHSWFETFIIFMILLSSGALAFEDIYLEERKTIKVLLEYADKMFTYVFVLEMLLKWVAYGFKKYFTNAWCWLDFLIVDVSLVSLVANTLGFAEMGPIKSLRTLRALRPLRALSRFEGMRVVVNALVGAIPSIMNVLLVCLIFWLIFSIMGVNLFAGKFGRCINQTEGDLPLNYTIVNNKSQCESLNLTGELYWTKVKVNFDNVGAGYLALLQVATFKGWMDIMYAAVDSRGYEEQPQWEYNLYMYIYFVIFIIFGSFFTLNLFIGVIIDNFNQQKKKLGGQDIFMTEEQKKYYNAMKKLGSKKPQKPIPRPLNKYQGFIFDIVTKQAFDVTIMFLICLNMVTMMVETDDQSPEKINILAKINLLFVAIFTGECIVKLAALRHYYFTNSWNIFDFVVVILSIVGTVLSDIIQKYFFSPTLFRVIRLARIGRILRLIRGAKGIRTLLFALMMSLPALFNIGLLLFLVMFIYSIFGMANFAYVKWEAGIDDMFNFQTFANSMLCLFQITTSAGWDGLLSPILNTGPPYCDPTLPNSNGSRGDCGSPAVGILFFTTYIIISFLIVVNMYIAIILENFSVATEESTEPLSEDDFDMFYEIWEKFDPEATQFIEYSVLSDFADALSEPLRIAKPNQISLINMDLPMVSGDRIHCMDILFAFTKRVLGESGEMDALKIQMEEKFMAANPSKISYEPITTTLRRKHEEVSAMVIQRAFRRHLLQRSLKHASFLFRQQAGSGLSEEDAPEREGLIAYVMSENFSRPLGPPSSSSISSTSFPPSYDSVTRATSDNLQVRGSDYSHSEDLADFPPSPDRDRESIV

Compound	inhibition at 3 µM [1, 2]	inhibition at 3 µM [1, 3]	inhibition at 10 µM (hNav1.1 (SCN1A))
N#CCOc1noc2ccc(-c3ccc(OC(F)(F)F)cc3)cc12 [Example 103, 2-((5-(4-(trifluoromethoxy)phenyl)benzo[d]isoxazol-3-yl)oxy)acetonitrile]	18.8%	< 5%	8.5%
Cc1ncn(-c2noc3ccc(-c4ccc(OC(F)(F)F)cc4)cc23)n1 [Example 141, 3-(3-methyl-1H-1,2,4-triazol-1-yl)-5-(4-(trifluoromethoxy)phenyl)benzo[d]isoxazole]	17.8%	< 5%	31.5%
Cc1nnc(C(C)Oc2noc3ccc(-c4ccc(OC(F)(F)F)cc4)cc23)o1 (stereo not drawn) [Example 153, 3-(1-(5-methyl-1,3,4-oxadiazol-2-yl)ethoxy)-5-(4-(trifluoromethoxy)phenyl)benzo[d]isoxazole]	57.6%		73.1%
Cc1nccnc1COc1noc2ccc(-c3ccc(OC(F)(F)F)cc3)cc12 [Example 152, 3-((3-methylpyrazin-2-yl)methoxy)-5-(4-(trifluoromethoxy)phenyl)benzo[d]isoxazole]	30.6%	< 5%	11.4%
FC(F)(F)Oc1ccc(-c2ccc3onc(-n4cnc(C(F)(F)F)c4)c3c2)cc1 [Example 145, 5-(4-(trifluoromethoxy)phenyl)-3-(4-(trifluoromethyl)-1H-imidazol-1-yl)benzo[d]isoxazole]	93%	< 5%	81.4%
CC(COc1noc2ccc(-c3ccc(OC(F)(F)F)cc3)cc12)n1cccn1 (stereo not drawn) [Example 68, 3-(2-(1H-pyrazol-1-yl)propoxy)-5-(4-(trifluoromethoxy)phenyl)benzo[d]isoxazole]	10.5%	< 5%	< 5%
Fc1cc(C(F)(F)F)ccc1-c1ccc2onc(OCc3ncccn3)c2c1 [Example 6, 5-(2-fluoro-4-(trifluoromethyl)phenyl)-3-(pyrimidin-2-ylmethoxy)benzo[d]isoxazole]	29.8%	12.6%	< 5%
FC(F)(F)Oc1ccc(-c2ccc3onc(N4CCOCC4)c3c2)cc1 [Example 130, 3-morpholino-5-(4-(trifluoromethoxy)phenyl)benzo[d]isoxazole]	9.2%	< 5%	< 5%
FC(F)(F)Oc1ccc(-c2ccc3onc(OC[C@@H]4COCCN4)c3c2)cc1 [Example 113, (S)-3-(morpholin-3-ylmethoxy)-5-(4-(trifluoromethoxy)phenyl)benzo[d]isoxazole]	54.3%	37.3%	88.4%
FC(F)(F)Oc1ccc(-c2ccc3onc(OCc4nnc(C5CC5)o4)c3c2)cc1 [Example 96, 3-((5-cyclopropyl-1,3,4-oxadiazol-2-yl)methoxy)-5-(4-(trifluoromethoxy)phenyl)benzo[d]isoxazole]	29.4%	< 5%	29.4%
FC(F)(F)Oc1ccc(-c2ccc3onc(OCCNc4ncccn4)c3c2)cc1 [Example 123, N-(2-((5-(4-(trifluoromethoxy)phenyl)benzo[d]isoxazol-3-yl)oxy)ethyl)pyrimidin-2-amine]	27.3%	< 5%	< 5%
Cc1nnc(COc2noc3ccc(-c4ccc(OC(F)(F)F)cc4)cc23)s1 [Example 101, 3-((5-methyl-1,3,4-thiadiazol-2-yl)methoxy)-5-(4-(trifluoromethoxy)phenyl)benzo[d]isoxazole]	13.5%	< 5%	< 5%
FC(F)(F)Oc1ccc(-c2ccc3onc(OCc4ncccn4)c3c2)cc1 [Example 1, 3-(pyrimidin-2-ylmethoxy)-5-(4-(trifluoromethoxy)phenyl)benzo[d]isoxazole]			5.5%
Cc1cc(OC(F)(F)F)ccc1-c1ccc2onc(OCc3ncccn3)c2c1 [Example 3, 5-(2-methyl-4-(trifluoromethoxy)phenyl)-3-(pyrimidin-2-ylmethoxy)benzo[d]isoxazole]	23.2%	11.8%	< 5%
COc1cc2onc(OCc3ncccn3)c2cc1-c1ccc(OC(F)(F)F)c(C)c1 [Example 14, 6-methoxy-5-(3-methyl-4-(trifluoromethoxy)phenyl)-3-(pyrimidin-2-ylmethoxy)benzo[d]isoxazole]	23.8%	6.4%	34.5%
CC(C)c1nnc(COc2noc3ccc(-c4ccc(OC(F)(F)F)cc4)cc23)o1 [Example 100, 3-((5-isopropyl-1,3,4-oxadiazol-2-yl)methoxy)-5-(4-(trifluoromethoxy)phenyl)benzo[d]isoxazole]	23.5%	< 5%	9.9%
FC(F)(F)Oc1ccc(-c2ccc3onc(OCc4cccnn4)c3c2)cc1 [Example 74, 3-(pyridazin-3-ylmethoxy)-5-(4-(trifluoromethoxy)phenyl)benzo[d]isoxazole]	23.5%	< 5%	< 5%
CC(C)[C@H](N)COc1noc2ccc(-c3ccc(OC(F)(F)F)cc3)cc12 [Example 118, (S)-3-methyl-1-((5-(4-(trifluoromethoxy)phenyl)benzo[d]isoxazol-3-yl)oxy)butan-2-amine]	88.8%	56.1%	89.4%
